From PubChem BioAssay (NCI) come the findings set out here.

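Step 1: Grow cells in 96-well plates. Step 2: Expose to compound for 48 hours at 5 concentrations. Step 3: Interpolate endpoints linearly; if unreached, use highest concentration. Definition used: TGI = concentration required for complete inhibition of growth.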

Some test systems named below: BT-549 breast; A549 NSCLC; HT29 colon; SF-295 CNS; RPMI-8226 leukemia; NCI-H460 lung; OVCAR-3 ovarian; SNB-75 CNS; SR leukemia; CCRF-CEM leukemia; MOLT-4 leukemia; DU-145 prostate; SN12C renal; UO-31 renal; HOP-62 NSCLC; MDA-N; HL-60(TB) leukemia; HOP-92 NSCLC; SNB-19 CNS; NCI/ADR-RES ovarian.
Holding throughout (test): NCI tumour cell line growth inhibition, 48 h

Regarding `CC[C@@]1(O)C(=O)OCc2c1cc1n(c2=O)Cc2c-1nc1ccccc1c2/C=N\NC(=O)C(N)CO` (stereo not given in full), the TGI in the experiment on BT-549 breast was over 100 µM; with A549 NSCLC, over 100 µM; with HT29 colon, over 90.4 µM; with SF-295 CNS, over 100 µM; with RPMI-8226 leukemia, over 73.2 µM; with NCI-H460 lung, 25.3 µM. The TGI is over 100 µM in the experiment with OVCAR-3 ovarian; 0.312 µM in the experiment on SNB-75 CNS; 3.59 µM in the experiment on SR leukemia; over 19.7 µM in the experiment with CCRF-CEM leukemia; 1.58 µM in the experiment with MOLT-4 leukemia; over 100 µM in the experiment on DU-145 prostate. For the same compound, the TGI in the experiment on SN12C renal was 25.3 µM; in the experiment on UO-31 renal, 11 µM; with HOP-62 NSCLC, 9.35 µM; with MDA-N it was over 100 µM; with HL-60(TB) leukemia, over 21 µM; with HOP-92 NSCLC, 50.5 µM. In addition, the TGI with SNB-19 CNS is over 100 µM; with NCI/ADR-RES ovarian, 9.2 µM.
`O=C1NCC(CSc2nc3cc(C4CCCc5c4[nH]c4ccccc54)ccc3o2)N1` (stereo not given): the TGI in the experiment with BT-549 breast, with A549 NSCLC, in the experiment on HT29 colon, with SF-295 CNS, in the experiment on RPMI-8226 leukemia and in the experiment on NCI-H460 lung was over 100 µM in each case. Further, the TGI in the experiment on OVCAR-3 ovarian, in the experiment with SNB-75 CNS, in the experiment with SR leukemia, in the experiment on CCRF-CEM leukemia, in the experiment with MOLT-4 leukemia and in the experiment with DU-145 prostate was over 100 µM each time. For the same compound, the TGI in the experiment on SN12C renal was over 100 µM; with UO-31 renal, over 100 µM; in the experiment with HOP-62 NSCLC, over 100 µM; with MDA-N, over 100 µM; with HL-60(TB) leukemia, over 100 µM; in the experiment on HOP-92 NSCLC, 71.2 µM. The TGI in the experiment on SNB-19 CNS and with NCI/ADR-RES ovarian was over 100 µM throughout.
For `COc1c2cc(C(C)(C)C)cc1Cc1cccc(c1OCc1cccc([N+](=O)[O-])c1)Cc1cc(C(C)(C)C)cc(c1OC)Cc1cccc(c1OCc1cccc([N+](=O)[O-])c1)Cc1cc(C(C)(C)C)cc(c1OC)Cc1cccc(c1OCc1cccc([N+](=O)[O-])c1)C2`, the TGI in the experiment on BT-549 breast, with A549 NSCLC, in the experiment on HT29 colon, with SF-295 CNS, with RPMI-8226 leukemia and in the experiment with NCI-H460 lung was over 50 µM throughout. Further, the TGI with OVCAR-3 ovarian is over 50 µM; with SNB-75 CNS, over 50 µM; with SR leukemia, over 50 µM; in the experiment with CCRF-CEM leukemia it was over 5 µM; in the experiment with MOLT-4 leukemia, over 50 µM; in the experiment with DU-145 prostate, over 50 µM. In addition, the TGI in the experiment with SN12C renal, in the experiment on UO-31 renal, in the experiment with HOP-62 NSCLC, in the experiment with MDA-N, in the experiment on HL-60(TB) leukemia and in the experiment with HOP-92 NSCLC was over 50 µM throughout. Further, the TGI with SNB-19 CNS and in the experiment on NCI/ADR-RES ovarian was over 50 µM throughout.
